The data set deals with Javanese medaka (Oryzias javanicus) livers. Briefly: real-time quantitative PCR of liver gene expression after exposure to 17β-estradiol. Type of data set: in vivo. Conditions: duration of exposure 24 hr, 100 μg/L, β-actin control gene. On the procedure:
To 3 L beaker with 2 L filtered seawater therein, 10 male Javanese medaka bred in culture water tank were transported each time, and acclimated for 24 hr. […] Additionally, five Javanese medaka of Example <1-1> were exposed to BPA (76 μg/L) for 48 hr. […] The Javanese medaka was transported to ice water, one at a time, which momentarily stunned it, followed by beheading and evisceration and liver removal.
Primers for real-time quantitative PCR (RT-PCR) for the above genes were designed and synthesized (Table 3).
With RNA template extracted with the method of Example <2-1>, cDNA was synthesized using AB High Capacity RNA-to-cDNA Kit (Applied Biosystems, USA). RNA in the amount of 1 μg was seeded, added with distilled water and titrated to 9 μl. 2×RT buffer (10 μl), and 20× enzyme Mix 1 μl were mixed well, centrifuged and precipitated, and allowed to react at 37° C. for 60 min. The reactant was heated at 95° C. for 5 min, after which reaction was completed. The synthesized cDNA was stored at −20° C.
To the 0.5 μg synthesized cDNA (corresponding to approximately 10 ng/μl), 0.8 primer pairs of corresponding genes (10 pmol/μl), and 2 SYBR1 mixture (10 μl) were added. The final amount was titrated to 20 μl using distilled water. At temperature condition of 95° C. 10 min, 95° C. 30 sec, 60° C. 30 sec, 72° C. 30 sec, 40 cycles of PCR were conducted.

Results on one compound are retold here after US20140315738A1, “MARINE MEDAKA GENES RESPONDING TO THE EXPOSURE OF ENDOCRINE-DISRUPTING CHEMICALS, AND METHOD FOR DIAGNOSING AN AQUATIC ECO-SYSTEM CONTAMINATION USING SAME” (priority 2011, published 2014).

The structures appear in SMILES notation.

Turning to `C[C@]12CC[C@@H]3c4ccc(O)cc4CC[C@H]3[C@@H]1CC[C@@H]2O` [17β-estradiol], the “Difference of expression level, Apolipoprotein B (SEQ ID 53)” value is reported as 2.5 times lower; the “Difference of expression level, Cytochrome P450 1A (CYP1A) (SEQ ID 5)” value is on record as 2.7 times lower; the “Difference of expression level, Glucose-6-phosphate dehydrogenase (SEQ ID 55)” value is listed as 2.2 times lower; the “Difference of expression level, Glutamate dehydrogenase 1b (SEQ ID 54)” value amounted to 5.2 times lower. Also, the “Difference of expression level, Selenoprotein M (SEQ ID 8)” value is 7.7 times higher; the “Difference of expression level, Transferrin (SEQ ID 56)” value was 3.6 times lower; the “Difference of expression level, Vitellogenin 1 (SEQ ID 37)” value was found to be 59.1 times higher.
